Laboratory results as given in US20120219596A1, “INJECTABLE FORMULATION FOR TREATMENT AND PROTECTION OF PATIENTS HAVING AN INFLAMMATORY REACTION OR AN ISCHEMIA-REPERFUSION EVENT” (ETH Zurich, priority 2009, published 2012).
Where two headings read alike, the source gives them in different places.

Experiments:
[1] = tested on: MCP-1 levels of rat alveolar epithelial cells; test: MCP-1 levels in supernatants of LPS-stimulated rat alveolar epithelial cells (ELISA); type: cell-based
Description: Table 2 MCP-1 levels of rat alveolar epithelial cells measured in supernatants in relation to an exposition to LPS without any substance (positive control=100%)
(§1) METHODS: Different molecules with CF3-group were tested against their corresponding non-fluorinated molecules. The group of molecules with CF3-group included hexafluoroisopropanol, 2,2,3,3,3-pentafluoro-1-propanol, 2,2,2-trifluorethanol, 3-amino-4,4,4-tri-fluorobutyroic acid, methyl-4,4,4-trifluoro-acetoacetate, methyl-trifluoro-acetamide, 5,5,5-trifluorleucine and Sevoflurane. In the group without CFx moieties 2-propanol, 1-propanol, ethanol, leucine, and diethyl ether were included. As well established model rat alveolar epithelial cells (AEC) and human blood microvascular cells (HMVEC) were exposed to phosphate-buffered saline (PBS, negative control) or LPS (20 μg/ml) for 6 hours (positive control). The influence of fluorinated compounds and non-fluorinated reference compounds on the inflammatory response of the cells was tested. Expression of rat-MCP-1 (BD Biosciences, San Diego, Calif.) and human CINC-1 GROa (R&D Systems Europe Ltd.) protein were analyzed by ELISA. Evaluation of possible cytotoxicity was done counting cells by means of fluorescence DNA quantification assays. At the same time release of lactate dehydrogenase into the supernatants was measured (LDH Assay, Promega, Madison, Wis., USA).

[2] = tested on: CINC-1/GROa protein levels of human blood micro vascular endothelial cells; test: CINC-1/GROa protein levels in supernatants of LPS-stimulated HMVEC (ELISA); type: cell-based; conditions: for CINC-1/GROa protein level in relation to LPS without any substance, Median: HMVEC, LPS 20 μg/ml 6 hours, positive control=100%
Description: Table 1 CINC-1/GROa protein levels of human blood micro vascular endothelial cells measured in supernatants in relation to an exposition to LPS without any substance (positive control=100%)
as §1

[3] = tested on: human microvascular endothelial cells (HMVEC); test: Viability and cytotoxicity in HMVEC (LDH release, fluorescence DNA quantification); type: cell-based; conditions: LDH release and cell count by fluorescence DNA quantification, in relation to control (100%), FIG. 1
Description: Viability is assessed by measuring the release of lactate de-hydrogenase and cytotoxicity is quantified by counting cells by means of fluorescence DNA quantification assays (see example 1). […] Concentration level differences are presented in relation to control (100%).
as §1

[4] = cited from earlier work
[5] = cited from earlier work; remark: listed apart in the source
[6] = tested on: inflammatory mediators and tissue damage markers (troponin or serum transaminase levels); conditions: patients undergoing lung, heart or liver surgery; cited from earlier work
[7] = tested on: polymorphonuclear neutrophils; test: Chemotactic migration of polymorphonuclear neutrophils towards supernatants from LPS-stimulated endothelial cells; type: cell-based; conditions: 16 mmol/L, FIG. 2
Description: Furthermore, the effect of hexafluoro-2-propanol in a concentration of 16 mmol/L on the chemotactic migration of polymorphonuclear neutrophils towards supernatants from LPS-stimulated endothelial cells (right side, 270)° and towards supernatants from LPS-stimulated endothelial cells incubated with hexafluoro-2-propanol (left side, 90°) was assessed according to (De Conno et al., Anesthesiology 2009; 110:1316-1326)

[8] = rat AEC, LPS 20 μg/ml 6 hours, 16 mmol/l in culture medium, positive control=100%
[9] = rat AEC, LPS 20 μg/ml 6 hours, 32 mmol/l in culture medium, positive control=100%
[10] = rat AEC, LPS 20 μg/ml 6 hours, 64 mmol/l in culture medium, positive control=100%
[11] = Epithelial cell, rat AEC, LPS 20 μg/ml 6 hours, 16 mmol/l in culture medium, positive control=100%, read-out: MCP-1 level in relation to LPS without any substance, Median
[12] = Epithelial cell, rat AEC, LPS 20 μg/ml 6 hours, 64 mmol/l in culture medium, positive control=100%, read-out: MCP-1 level in relation to LPS without any substance, Median
[13] = footnote 1: Qiana et al., Journal of Chromatography A 2007
[14] = Epithelial cell, rat AEC, LPS 20 μg/ml 6 hours, 32 mmol/l in culture medium, positive control=100%, read-out: MCP-1 level in relation to LPS without any substance, Median
[15] = Rattus norvegicus, Epithelial cell, 6 h, read-out: MCP-1 level in relation to LPS without any substance, Median

## CC(N)CC(=O)O (racemic) [DL-3-Amino-n-butyric acid, reference compound]
[1]; rat AEC, LPS 20 μg/ml 6 hours, 8 mmol/l in culture medium, positive control=100%
  MCP-1 level in relation to LPS without any substance, Median: 95%
[1]; [8]
  MCP-1 level in relation to LPS without any substance, Median: 91%
[1]; [9]
  MCP-1 level in relation to LPS without any substance, Median: 149%
[1]; [10]
  MCP-1 level in relation to LPS without any substance, Median: 117%

## CCCO [1-Propanol, reference compound]
[2]; 16 mmol/l in culture medium
  CINC-1/GROa protein level in relation to LPS without any substance, Median: 82%
[2]; 32 mmol/l in culture medium
  CINC-1/GROa protein level in relation to LPS without any substance, Median: 81%
[2]; 64 mmol/l in culture medium
  CINC-1/GROa protein level in relation to LPS without any substance, Median: 64%
[1]; [8]
  MCP-1 level in relation to LPS without any substance, Median: 99%
[1]; [10]
  MCP-1 level in relation to LPS without any substance, Median: 74%

## OCC(F)(F)F [2,2,2-Trifluorethanol, 2,2,2-Trifluoroethanol]
[2]; 16 mmol/l in culture medium
  CINC-1/GROa protein level in relation to LPS without any substance, Median: 98%
[2]; 32 mmol/l in culture medium
  CINC-1/GROa protein level in relation to LPS without any substance, Median: 78%
[2]; 64 mmol/l in culture medium
  CINC-1/GROa protein level in relation to LPS without any substance, Median: 73%
[1]; [11]
  activity at 16000 µM: 58%
[1]; [12]
  activity at 64000 µM: 59%
[3]
  Viability and cytotoxicity in HMVEC: does not cause significant cytotoxicity
[4]; [13]
  Octanol water partition coefficient: 0.17 ^(1)
[5]; in words
  Solubility: miscible

## OCC(F)(F)C(F)(F)F [2,2,3,3,3-Pentafluoro-1-propanol]
[2]; 16 mmol/l in culture medium
  CINC-1/GROa protein level in relation to LPS without any substance, Median: 115%
[2]; 32 mmol/l in culture medium
  CINC-1/GROa protein level in relation to LPS without any substance, Median: 41%
[2]; 64 mmol/l in culture medium
  CINC-1/GROa protein level in relation to LPS without any substance, Median: 31%
[1]; [11]
  activity at 16000 µM: 92%
[1]; [12]
  activity at 64000 µM: 70%
[5]; 25° C.
  Solubility: 21.9 g/L (25° C.)

## CC(C)O [2-Propanol, reference compound]
[2]; 4 mmol/l in culture medium
  CINC-1/GROa protein level in relation to LPS without any substance, Median: 109%
[2]; 16 mmol/l in culture medium
  CINC-1/GROa protein level in relation to LPS without any substance, Median: 97%
[1]; [8]
  MCP-1 level in relation to LPS without any substance, Median: 101%
[1]; [9]
  MCP-1 level in relation to LPS without any substance, Median: 86%
[1]; [10]
  MCP-1 level in relation to LPS without any substance, Median: 82%

## NC(CC(=O)O)C(F)(F)F (centres unmarked) [3-Amino-4,4,4-Trifluorobutyroic acid, 3-Amino-4,4,4-trifluorobutyric acid]
[2]; 8 mmol/l in culture medium
  CINC-1/GROa protein level in relation to LPS without any substance, Median: 79%
[2]; 16 mmol/l in culture medium
  CINC-1/GROa protein level in relation to LPS without any substance, Median: 0%
[2]; 64 mmol/l in culture medium
  CINC-1/GROa protein level in relation to LPS without any substance, Median: 0%
[1]; [11]
  activity at 16000 µM: 101%
[1]; [14]
  activity at 32000 µM: 44%
[1]; [12]
  activity at 64000 µM: 0%
[3]
  Viability and cytotoxicity in HMVEC: does not cause significant cytotoxicity
other
  melting point: 180 to 190 °C

## CC(C[C@H](N)C(=O)O)C(F)(F)F (some centres unmarked) [5,5,5-Trifluorleucine]
[1]; [8]
  MCP-1 level in relation to LPS without any substance, Median: 68%

## ClC(Cl)Cl [Chloroform, reference compound]
[1]; [15]
  activity at 64000 µM: 171%

## FC(F)OC(F)C(F)(F)F (centres unmarked) [Desflurane]
[4]; footnote 2: Urban et al. 1995
  Octanol water partition coefficient: 28.5
[6]
  Inflammatory mediators and tissue damage markers in patients: significantly reduces

## CCO [Ethanol, reference compound]
[2]; 16 mmol/l in culture medium
  CINC-1/GROa protein level in relation to LPS without any substance, Median: 107%
[2]; 32 mmol/l in culture medium
  CINC-1/GROa protein level in relation to LPS without any substance, Median: 91%
[2]; 64 mmol/l in culture medium
  CINC-1/GROa protein level in relation to LPS without any substance, Median: 88%
[1]; [11]
  activity at 16000 µM: 103%
[1]; [12]
  activity at 64000 µM: 92%

## FC(F)(F)C(Cl)Br (centres unmarked) [Halothane]
[4]; footnote 2: Urban et al. 1995
  Octanol water partition coefficient: 315

## OC(C(F)(F)F)C(F)(F)F [Hexafluoroisopropanol, 1,1,1,3,3,3-Hexafluoropropan-2-ol]
[2]; 4 mmol/l in culture medium
  CINC-1/GROa protein level in relation to LPS without any substance, Median: 49%
[2]; 16 mmol/l in culture medium
  CINC-1/GROa protein level in relation to LPS without any substance, Median: 26%
[2]; LPS stimulation
  CINC-1 levels of endothelial cells stimulated with LPS (in words): decrease was most pronounced
[1]; Epithelial cell, rat AEC, LPS 20 μg/ml 6 hours, 4 mmol/l in culture medium, positive control=100%, read-out: MCP-1 level in relation to LPS without any substance, Median
  activity at 4000 µM: 98%
[1]; Epithelial cell, rat AEC, LPS 20 μg/ml 6 hours, 8 mmol/l in culture medium, positive control=100%, read-out: MCP-1 level in relation to LPS without any substance, Median
  activity at 8000 µM: 101%
[1]; [11]
  activity at 16000 µM: 63%
[1]; [14]
  activity at 32000 µM: 11%
[1]; LPS stimulation
  MCP-1 levels of epithelial cells stimulated with LPS (in words): decrease was most pronounced
[3]
  Viability and cytotoxicity in HMVEC: does not cause significant cytotoxicity
[7]
  Chemotaxis for neutrophils: significantly attenuated chemotaxis
[4]; [13]
  Octanol water partition coefficient: 0.37 ^(1)
[5]; 25° C.
  Solubility: 1000 g/L (25° C.)

## FC(F)OC(Cl)C(F)(F)F (centres unmarked) [Isoflurane]
[4]; footnote 2: Urban et al. 1995
  Octanol water partition coefficient: 156
[6]
  Inflammatory mediators and tissue damage markers in patients: significantly reduces

## CC(C)C[C@H](N)C(=O)O [Leucine, reference compound]
[1]; [11]
  activity at 16000 µM: 91%

## COC(=O)CC(=O)C(F)(F)F [Methyl-4,4,4-trifluoro-acetoacetate]
[1]; [11]
  activity at 16000 µM: 7%
[1]; [14]
  activity at 32000 µM: 0%

## CNC(=O)C(F)(F)F [Methyltrifluoroacetamide, N-Methyl-2,2,2-trifluoroacetamide]
[1]; [15]
  activity at 8000 µM: 80%
  activity at 16000 µM: 56%
  activity at 32000 µM: 41%
  activity at 64000 µM: 0%

## Enflurane
[4]; footnote 2: Urban et al. 1995
  Octanol water partition coefficient: 122

## Sevoflurane
[1]; [10]
  MCP-1 level in relation to LPS without any substance, Median: 68%
[4]; footnote 2: Urban et al. 1995
  Octanol water partition coefficient: 71
[6]
  Inflammatory mediators and tissue damage markers in patients: significantly reduces
